The target in data set [1] is T1, mammalian ornithine decarboxylase from rat liver (Rattus norvegicus, UniProt P09057).
T1 construct: mammalian ornithine decarboxylase from rat liver; from tissue; host or cells: rat liver
T1 sequence (P09057 1-461): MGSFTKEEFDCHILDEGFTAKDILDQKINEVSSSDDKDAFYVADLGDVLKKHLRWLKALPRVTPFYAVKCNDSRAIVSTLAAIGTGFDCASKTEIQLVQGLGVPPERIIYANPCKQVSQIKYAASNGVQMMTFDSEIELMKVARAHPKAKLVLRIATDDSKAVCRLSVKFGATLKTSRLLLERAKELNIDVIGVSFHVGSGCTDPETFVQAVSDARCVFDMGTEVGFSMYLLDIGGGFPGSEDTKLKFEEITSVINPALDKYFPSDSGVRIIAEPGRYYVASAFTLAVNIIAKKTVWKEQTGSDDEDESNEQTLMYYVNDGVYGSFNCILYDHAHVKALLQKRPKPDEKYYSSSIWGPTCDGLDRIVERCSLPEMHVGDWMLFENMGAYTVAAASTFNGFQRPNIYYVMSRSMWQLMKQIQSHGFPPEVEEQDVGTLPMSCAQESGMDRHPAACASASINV
Briefly: Inactivation of mammalian ornithine decarboxylase. The note with it: rat liver enzyme. It is filed as biochemical.

Data set [2] addresses T2, bacterial ornithine decarboxylase from E. Coli (Escherichia coli, UniProt P21169).
T2 construct: bacterial ornithine decarboxylase from E. Coli; host or cells: E. coli
Kind of data set: Inactivation of bacterial ornithine decarboxylase. The note with it: E. Coli enzyme. The data set is classed as biochemical.

The subject of data set [3] is Male Sim:(S.D.)fBR rats. Briefly: In vivo potentiation of L-DOPA induced behaviors. On the set-up: species or system rat. The conditions noted are these: for Mean Behavior Score at 60 min.: score scale 0-6, before 200 mg/kg L-DOPA i.p. Here is the method: Male Sim:(S.D.)fBR rats weighing 180-335 g were used for these experiments. Groups of 5 rats were individually housed and received water, or various doses of either 2-amino-2-(3-hydroxybenzyl)penta-3,4-dienoic acid or 2-amino-2-(3,4-dihydroxybenzyl)penta-3,4-dienoic acid 30 l minutes before 200 mg/kg of L-DOPA, i.p. Beginning 15 minutes later, behavioral observations were made at 15 minutes intervals for 2 hours. Behavoir was scored as follows:
3=Alert with intermittent sniffing

Data set [4] is described as follows: Toxicity (acute, oral, mouse). The data set is classed as in vivo. The conditions noted are these: in vivo; acute, oral, mouse. Here is the method: (§1) 2-amino-2-(3-hydroxybenzyl)penta-3,4-dienoic acid prepared in CMC vehicle was administered once daily to groups of 6 male mice at doses 0, 62.5, 125, 250, and 500 mg/kg. […] Therefore, the LD50 (acute, oral, mouse) for 2-amino-2-(3-hydroxybenzyl)penta-3,4-dienoic acid is greater than 500 mg/kg.

For data set [5], the system named is male mice. Briefly: Toxicity (acute, oral, mouse). The note with it: male mice; 62.5, 125, 250 and 500 mg/kg in CMC vehicle; observed for 21 days. It is filed as in vivo. Here is the method: as §1
Data set [6] has as its target T3, phenylalanine decarboxylase from Streptococcus faecallis (Enterococcus faecalis, UniProt Q838D6).
T3 construct: L-phenylalanine substrate, phenylethylamine by GC
T3 sequence (Q838D6 1-620): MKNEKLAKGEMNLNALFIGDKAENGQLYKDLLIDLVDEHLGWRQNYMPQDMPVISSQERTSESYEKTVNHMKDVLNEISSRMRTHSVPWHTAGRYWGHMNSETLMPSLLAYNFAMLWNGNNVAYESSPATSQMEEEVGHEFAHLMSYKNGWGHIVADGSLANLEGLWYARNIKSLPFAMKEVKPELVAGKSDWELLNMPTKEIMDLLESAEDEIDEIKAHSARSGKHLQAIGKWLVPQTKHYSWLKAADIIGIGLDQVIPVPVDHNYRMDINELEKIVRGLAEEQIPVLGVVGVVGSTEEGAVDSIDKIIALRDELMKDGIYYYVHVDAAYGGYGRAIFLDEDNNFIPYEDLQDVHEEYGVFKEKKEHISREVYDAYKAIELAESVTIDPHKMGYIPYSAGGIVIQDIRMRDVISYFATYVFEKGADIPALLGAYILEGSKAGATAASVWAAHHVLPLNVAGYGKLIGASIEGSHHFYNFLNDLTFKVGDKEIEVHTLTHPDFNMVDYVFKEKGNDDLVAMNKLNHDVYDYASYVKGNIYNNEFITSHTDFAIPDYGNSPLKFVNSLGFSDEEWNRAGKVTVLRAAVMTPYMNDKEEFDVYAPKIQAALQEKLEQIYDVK
Kind of data set: Time dependent inactivation of phenylalanine decarboxylase. The data set is classed as biochemical. The note with it: Streptococcus faecallis enzyme. From the text:
(§2) Mammalian DOPA decarboxylase was isolated and purified from porcine kidney by the procedure of Borri-Voltatorni et al [Eur. J. Biochem., 93, 181 (1979)] with modifications as introduced by Rudd and Thanassi [Biochemistry, 20, 7469 (1981)]. Bacterial L-phenylalanine and L-tyrosine decarboxylases ex Streptococcus faecallis were purchased from Sigma Chemical Co. as crude extracts and studied without further purification.
(§3) The time dependent inactivation of bacterial aromatic amino acid decarboxylases with 200-1000 micromolar inhibitor, e.g. 2-amino-2-(4-hydroxybenzyl)-penta-3,4-dienoic acid or 2-amino-2-benzylpenta-3,4-dienoic acid, was monitored at pH 5.5 and 37° C. Residual activity of tyrosine decarboxylase ex Streptococcus faecallis was determined by measurement of p-tyramine production at pH 5.5 and 37° C. p-Tyramine was separated by HPLC and quantified by electrochemical oxidation at +0.7 volts.
Residual activity of L-phenylalanine decarboxylase ex Streptococcus faecallis with L-phenylalanine (2 mM) as substrate was meaasured by gas chromatographic analysis of phenylethylamine production. Direct injection of enzymatic reaction mixture (1-5 microliters) onto a standard glass column packed with 10% Apiezon L on Chromosorb 80/100 deactivated with 2% KOH allowed separation of aromatic amine from the reaction mixture. FID detection quantified the rate of product formation.

Data set [7] deals with T4, bacterial tyrosine decarboxylase from Streptococcus faecallis (Enterococcus faecalis, UniProt Q838D6).
T4 construct: purchased from Sigma Chemical Co. as crude extracts; purchased Sigma Chemical Co; host or cells: Streptococcus faecalis, crude extract
T4 sequence (Q838D6 1-620): T3 sequence (Q838D6 1-620)
Kind of data set: Time dependent inactivation of tyrosine decarboxylase. The data set is classed as biochemical. The conditions noted are these: Streptococcus faecallis enzyme.
Description: as §2, §3

For data set [8], the target named is T5, mammalian DOPA decarboxylase from porcine kidney (Sus scrofa, UniProt P80041).
T5 construct: isolated and purified from porcine kidney; from tissue; host or cells: porcine kidney
T5 sequence (P80041 1-486): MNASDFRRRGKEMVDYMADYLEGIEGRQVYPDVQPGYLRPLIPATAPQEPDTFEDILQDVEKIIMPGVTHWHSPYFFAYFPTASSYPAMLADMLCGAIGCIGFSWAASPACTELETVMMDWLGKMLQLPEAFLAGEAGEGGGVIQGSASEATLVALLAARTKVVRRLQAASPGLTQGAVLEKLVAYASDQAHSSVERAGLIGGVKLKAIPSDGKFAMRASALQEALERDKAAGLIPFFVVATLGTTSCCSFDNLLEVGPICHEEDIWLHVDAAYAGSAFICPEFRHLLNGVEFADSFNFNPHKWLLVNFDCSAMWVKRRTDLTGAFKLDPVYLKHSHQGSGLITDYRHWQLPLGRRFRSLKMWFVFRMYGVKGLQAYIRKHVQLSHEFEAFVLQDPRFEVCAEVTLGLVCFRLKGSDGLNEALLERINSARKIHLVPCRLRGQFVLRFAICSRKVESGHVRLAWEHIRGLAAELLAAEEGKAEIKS
Kind of data set: Time dependent inactivation of DOPA decarboxylase. The note with it: porcine kidney enzyme. The data set is classed as biochemical.
Description: as §2
Time dependent inactivation of mammalian DOPA decarboxylase was monitored by incubation of enzyme with 4 to 100 molar equivalent excess of 2-amino-2-(3,4-dihydroxybenzyl)penta-3,4-dienoic acid at pH 6.8 and 37° C. At appropriate time intervals, aliquots of the mixture were withdrawn, diluted 30-fold into excess L-DOPA (2 mM) and residual DOPA decarboxylase activity determined.
DOPA decarboxylase activity was routinely measured by liquid chromatography and electrochemical detection of catecholamine products. DOPA decarboxylase (1-5 micrograms, 1-20 units) was incubated with L-DOPA (2000 micromolar, 150 microliters) and PLP (10 micromolar) in 0.1M phosphate at pH 6.8 and 37° C. After 1-10 minutes, the reaction was quenched with citric acid (2M, 25 microliters), diluted two-fold with distilled water and 10 microliter aliquots were analyzed by HPLC on a reverse phase Brownlee RP-18 column. Isocratic elution with pH 4.35 buffer [0.1M NaOAc ([…]), 0.1M citric acid (32% v/v) and methanol (15% v/v)] at a flow rate of 2.5 ml/min. afforded baseline resolution of dopamine (RT=2.8 min.) from L-DOPA (RT=1.9 min.).
Quantification of dopamine was accomplished by preoxidation of the catechol to the ortho quinone at +0.25 volts in the first analytical electrochemical cell, followed by the selective reduction of ortho quinone in the second analytical cell set at -0.25 volts. This configuration for the ESA electrochemical detector allowed highly sensitive and selective detection of catecholamines (less than 10 picomoles/injection).

For data set [9], the system named is dermatophytes. Briefly: In vitro anti-microbial activity (dermatophytes). It is filed as cell-based.

T2 sequence (P21169 whole entry): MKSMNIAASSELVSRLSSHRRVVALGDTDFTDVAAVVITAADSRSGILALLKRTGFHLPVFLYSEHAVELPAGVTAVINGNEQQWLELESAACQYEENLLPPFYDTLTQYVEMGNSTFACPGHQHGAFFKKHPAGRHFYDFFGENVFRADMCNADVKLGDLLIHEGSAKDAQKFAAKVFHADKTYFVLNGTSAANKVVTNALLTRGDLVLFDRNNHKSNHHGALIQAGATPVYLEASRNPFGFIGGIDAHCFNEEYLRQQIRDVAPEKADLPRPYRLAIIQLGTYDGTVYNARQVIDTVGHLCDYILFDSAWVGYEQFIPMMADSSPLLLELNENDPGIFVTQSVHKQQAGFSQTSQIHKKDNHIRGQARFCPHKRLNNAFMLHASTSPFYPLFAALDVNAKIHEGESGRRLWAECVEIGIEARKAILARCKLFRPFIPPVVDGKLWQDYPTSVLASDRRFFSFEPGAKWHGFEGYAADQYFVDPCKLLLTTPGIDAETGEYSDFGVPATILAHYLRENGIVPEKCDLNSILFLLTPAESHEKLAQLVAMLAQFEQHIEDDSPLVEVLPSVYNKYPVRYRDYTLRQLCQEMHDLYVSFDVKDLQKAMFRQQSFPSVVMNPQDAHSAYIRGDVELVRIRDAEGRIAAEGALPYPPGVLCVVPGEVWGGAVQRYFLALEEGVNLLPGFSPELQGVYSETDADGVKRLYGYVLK

With `C=C=CC(N)(CCCN)C(=O)O` (stereo not drawn) [2-amino-2-(3-amino-n-propyl)penta-3,4-dienoic acid], the “irreversible inactivation of ornithine decarboxylase” value in data set [1] and in [2] was “irreversible inactivators” each time.

As for `C=C=CC(N)(Cc1cccc(O)c1)C(=O)O` (stereo not drawn) [2-amino-2-(3-hydroxybenzyl)penta-3,4-dienoic acid], in data set [3] (3-30 mg/kg i.p. or 30-150 mg/kg s.c., 30 minutes before 200 mg/kg L-DOPA i.p.), the “potentiation of the behaviors induced by L-DOPA” value is “potentiated the behaviors induced by L-DOPA”. Further, the “Mean Behavior Score at 60 min.” value in data set [3] (3-30 mg/kg i.p.) and in [3] (30-150 mg/kg s.c.) was 3.4 in each case. For the same compound, the “potentiation of DOPA behaviors” value in data set [3] (3 to 30 mg/kg i.p. or 30 to 150 mg/kg s.c.) was “potentiate DOPA behaviors”. Moreover, the 50% lethal dose (LD50) at 504 h in [4] is over 500 mg/kg. For the same compound, the deaths entry in data set [5] was “no deaths”. The “irreversible inactivation of phenylalanine decarboxylase” value in data set [6] is reported as “irreversible inactivators”. Moreover, the “irreversible inactivation of tyrosine decarboxylase” value in data set [7] is listed as “irreversible inactivators”. Further, the “irreversible inactivation of DOPA decarboxylase” value in data set [8] is on record as “irreversible inactivators”.

Turning to `C=C=C(C)C(N)C(=O)O` (stereo not drawn) [2-amino-3-methylpenta-3,4-dienoic acid], in data set [9], the “activity in vitro against a spectrum of dermatophytes” value is listed as “active”.

Values taken from patent US4661510A, “α-allenic-α-amino acids as enzyme inhibitors” (priority 1985, dated 1987).
